Patent EP0931079B1, “SUBSTITUTED BENZOCYCLOHEPTAPYRIDINE DERIVATIVES USEFUL FOR INHIBITION OF FARNESYL PROTEIN TRANSFERASE” (SCHERING CORPORATION, priority 1996, dated 1998)
pIC50: −log10 of the molar value.

Experiments:
[1] = biological target: T1, farnesyl protein transferase (Homo sapiens, UniProt P49354+P49356); experiment: FPT IC50 (H-ras), inhibition of farnesyl protein transferase, in vitro enzyme assay; assay type: biochemical; details: range stated for the listed compounds as a group
Protocol: (§1) FPT IC50 (inhibition of farnesyl protein transferase, in vitro enzyme assay) and COS Cell IC50 (Cell-Based Assay) were determined following the assay procedures described in WO 95/10516, published April 20, 1995. GGPT IC50 (inhibition of geranylgeranyl protein transferase, in vitro enzyme assay), Cell Mat Assay, and anti-tumor activity (in vivo anti-tumor studies) could be determined by the assay procedures described in WO 95/10516. The disclosure of WO 95/10516 is incorporated herein by reference thereto.

[2] = biological target: T1, farnesyl protein transferase; experiment: FPT IC50 (K-ras), inhibition of farnesyl protein transferase, in vitro enzyme assay; assay type: biochemical; details: range stated for the listed compounds as a group
Protocol: as §1

COS Cell = COS Cell IC50 (Cell-Based Assay); details: range stated for the listed compounds as a group
Protocol: as §1

Human tumor cells = experiment: Soft Agar Assay (anchorage-independent growth, colony outgrowth); assay type: cell-based; details: colonies after 10-16 days at 37°C, range stated for the listed compounds as a group, read-out: Soft Agar FPT IC50
Protocol: Anchorage-independent growth is a characteristic of tumorigenic cell lines. Human tumor cells are suspended in growth medium containing 0.3% agarose and an indicated concentration of a famesyl transferase inhibitor. The solution is overlayed onto growth medium solidified with 0.6% agarose containing the same concentration of farnesyl transferase inhibitor as the top layer. After the top layer is solidified, plates are incubated for 10-16 days at 37°C under 5% CO2 to allow colony outgrowth. After incubation, the colonies are stained by overlaying the agar with a solution of MTT (3-[4,5-dimethyl-thiazol-2-yl]-2,5-diphenyltetrazolium bromide, Thiazolyl blue) (1 mg/mL in PBS). Colonies can be counted and the IC50's can be determined.

SMILES	pIC50 [1]	pIC50 [2]	pIC50 (COS Cell)	pIC50 (Human tumor cells)
NC(=O)CN1CCC(CC(=O)N2CCC([C@H]3c4ncc(Br)cc4CCc4cc(Cl)cc(Br)c43)CC2)CC1 [Compound 2.0]	7.55 to 8.74	7.28 to 8.07	6.08 to 8.22	≤ 7.22
CC(C)(C)OC(=O)CN1CCC(CC(=O)N2CCC([C@H]3c4ncc(Br)cc4CCc4cc(Cl)cc(Br)c43)CC2)CC1 [Compound 11.0]	7.55 to 8.74			
CON(C)C(=O)CN1CCC(CC(=O)N2CCC([C@H]3c4ncc(Br)cc4CCc4cc(Cl)cc(Br)c43)CC2)CC1 [Compound 3.0]	7.55 to 8.74	7.28 to 8.07	6.08 to 8.22	≤ 7.22
CC(C)(C)OC(=O)N1CCN(C(=O)CN2CCC(CC(=O)N3CCC([C@H]4c5ncc(Br)cc5CCc5cc(Cl)cc(Br)c54)CC3)CC2)CC1 [Compound 8.0]	7.55 to 8.74	7.28 to 8.07	6.08 to 8.22	≤ 7.22
O=C(CC1CCN(CC(=O)N2CCOCC2)CC1)N1CCC([C@H]2c3ncc(Br)cc3CCc3cc(Cl)cc(Br)c32)CC1 [Compound 7.0]	7.55 to 8.74	7.28 to 8.07	6.08 to 8.22	≤ 7.22
CCN(CC)C(=O)CN1CCC(CC(=O)N2CCC([C@H]3c4ncc(Br)cc4CCc4cc(Cl)cc(Br)c43)CC2)CC1 [Compound 4.0]	7.55 to 8.74	7.28 to 8.07	6.08 to 8.22	≤ 7.22
O=C(CN1CCC(CC(=O)N2CCC([C@H]3c4ncc(Br)cc4CCc4cc(Cl)cc(Br)c43)CC2)CC1)N[C@@H]1O[C@H](CO)[C@H](O)[C@H](O)[C@H]1O [Compound 6.0]	7.55 to 8.74	7.28 to 8.07	6.08 to 8.22	≤ 7.22
O=C(CC1CCN(CC(=O)N2CCc3ccccc32)CC1)N1CCC([C@H]2c3ncc(Br)cc3CCc3cc(Cl)cc(Br)c32)CC1 [Compound 10.0]	7.55 to 8.74		6.08 to 8.22	
O=C(CC1CCN(CC(=O)N2CCNCC2)CC1)N1CCC([C@H]2c3ncc(Br)cc3CCc3cc(Cl)cc(Br)c32)CC1 [Compound 9.0]	7.55 to 8.74	7.28 to 8.07	6.08 to 8.22	≤ 7.22
O=C(CC1CCN(CC(O)CO)CC1)N1CCC([C@H]2c3ncc(Br)cc3CCc3cc(Cl)cc(Br)c32)CC1 (stereo partly shown) [Compound 20.0]	7.55 to 8.74		6.08 to 8.22	≤ 7.22
O=C(CN1CCC(CC(=O)N2CCC([C@H]3c4ncc(Br)cc4CCc4cc(Cl)cc(Br)c43)CC2)CC1)NCc1ccccc1 [Compound 5.0]	7.55 to 8.74	7.28 to 8.07	6.08 to 8.22	
